From ChEMBL document CHEMBL1629617, “IncA/C plasmid-mediated florfenicol resistance in the catfish pathogen Edwardsiella ictaluri” (2009)
≈ marks a conversion by molar mass, not a printed value.

How the values were obtained:
Format in all cases: functional
Edwardsiella ictaluri [1] = assay: Antimicrobial activity against florfenicol-resistant Edwardsiella ictaluri M07-1 by microdilution assay
Escherichia coli [2] = assay: Antimicrobial activity against Escherichia coli ATCC […] by microdilution assay
Escherichia coli [3] = assay: Antimicrobial activity against Escherichia coli ATCC […] carrying Edwardsiella ictaluri pM07-1 by microdilution assay
Edwardsiella ictaluri [4] = assay: Fold resistance, ratio of MIC for florfenicol-resistance Edwardsiella ictaluri M07-1 to MIC for florfenicol-susceptible Edwardsiella ictaluri

Row | Structure (SMILES) | MIC (Edwardsiella ictaluri [1]) [µg/mL] | MIC (Escherichia coli [2]) [µg/mL] | MIC (Escherichia coli [3]) [µg/mL] | Ratio (Edwardsiella ictaluri [4])
1 | COc1cc(Cc2cnc(N)nc2N)cc(OC)c1OC [TRIMETHOPRIM] | 1 (≈ 3.44 µM) | 0.1 (≈ 0.344 µM) | 1 (≈ 3.44 µM) | 
2 | CN(C)[C@@H]1C(O)=C(C(N)=O)C(=O)[C@@]2(O)C(O)=C3C(=O)c4c(O)cccc4[C@@](C)(O)[C@H]3C[C@@H]12 [TETRACYCLINE] | 32 (≈ 72 µM) | 4 (≈ 9 µM) | 32 (≈ 72 µM) | 
3 | CC1(C)S[C@@H]2[C@H](NC(=O)[C@H](N)c3ccccc3)C(=O)N2[C@H]1C(=O)O [AMPICILLIN] | > 32 | 4 (≈ 11.4 µM) | > 32 | 
4 | CO/N=C(\C(=O)N[C@@H]1C(=O)N2C(C(=O)O)=C(CSC(=O)c3ccco3)CS[C@H]12)c1csc(N)n1 [CEFTIOFUR] | 8 (≈ 15.3 µM) | 0.5 (≈ 0.955 µM) | > 8 | 
5 | CC1(C)S[C@@H]2[C@H](NC(=O)[C@H](N)c3ccc(O)cc3)C(=O)N2[C@H]1C(=O)O [AMOXICILLIN] | > 32 | 4 (≈ 10.9 µM) | > 32 | 
6 | CO[C@@]1(NC(=O)Cc2cccs2)C(=O)N2C(C(=O)O)=C(COC(N)=O)CS[C@@H]21 [CEFOXITIN] | > 32 | 4 (≈ 9.36 µM) | > 32 | 
7 | CS(=O)(=O)c1ccc([C@@H](O)[C@@H](CF)NC(=O)C(Cl)Cl)cc1 [FLORFENICOL] | 128 (≈ 357 µM) | 4 (≈ 11.2 µM) | 256 (≈ 715 µM) | 500
8 | O=C(O)[C@H]1/C(=C/CO)O[C@@H]2CC(=O)N21 [CLAVULANIC ACID] | 16 (≈ 80.3 µM) | 2 (≈ 10 µM) | 16 (≈ 80.3 µM) | 
9 | Cc1cc(NS(=O)(=O)c2ccc(N)cc2)no1 [SULFAMETHOXAZOLE] | 19 (≈ 75 µM) | 2.4 (≈ 9.48 µM) | 19 (≈ 75 µM) | 
10 | CN[C@@H]1[C@H](O[C@H]2[C@H](O[C@H]3[C@H](O)[C@@H](O)[C@H](N=C(N)N)[C@@H](O)[C@@H]3N=C(N)N)O[C@@H](C)[C@]2(O)C=O)O[C@@H](CO)[C@H](O)[C@H]1O [STREPTOMYCIN] | > 64 | < 32 | > 64 | 
11 | CO/N=C(\C(=O)N[C@@H]1C(=O)N2C(C(=O)O)=C(CSc3nc(=O)c(O)nn3C)CS[C@H]12)c1csc(N)n1 [CEFTRIAXONE] | 32 (≈ 57.7 µM) | < 0.25 | 32 (≈ 57.7 µM) | 
12 | O=C(N[C@H](CO)[C@H](O)c1ccc([N+](=O)[O-])cc1)C(Cl)Cl [CHLORAMPHENICOL] | > 32 | 4 (≈ 12.4 µM) | > 32 | 
